Results reported in patent publication US20230113802A1, “COMPOSITION AND METHOD TO PREPARE LONG-ACTING INJECTABLE SUSPENSION CONTAINING MULTIPLE CANCER DRUGS” (University of Washington, priority 2020, published 2023).
Where two headings read alike, the source gives them in different places. Marks after values point to notes of the source that are not given here.

Legend:
[1] = cited from earlier work
[2] = GT localization in healthy versus 4T1 tumor bearing lung tissue; type: in vivo, BALB/c mice; details: for concentration at 1 h / concentration at 24 h / Kp at 1 h / Kp at 24 h: female, BALB/c, mouse, intravenous; for concentration at 24 h / Kp at 24 h: 24 hours after DcNP; for Kp at 1 h / Kp at 24 h: lung/plasma, read-out: Lung/Plasma Ratio
Protocol: Female BALB/c mice were injected with 2×10^5 4 T1 metastatic breast cancer cells that express luciferase as a marker intravenously by tail vein on day 0. Stable expression of luciferase in these cells allows for bioluminescent monitoring of tumor growth and metastasis. Over a 14-day period, mouse behavior and health conditions were monitored daily and body weight measurements were taken every 2 days. […] The bioluminescence imaging was acquired through a XENOGEN IVIS 200 imaging system (PerkinElmer, Waltham, Mass.). The bioluminescence imaging parameters for live mice were set as follows: field of view, 24; excitation filter, closed; emission filter, open; exposure time, 180 sec; binning factor, 4; f/stop, 2. Bioluminescence intensity from mice were integrated using Live Image software (PerkinElmer, Waltham, Mass.). Mice were then intravenously administered GT in DcNPs at a dose of 50 mg/kg G and 5 mg/kg T or the same dose of drug in control suspension (CrEL) and sacrificed at fixed time points.
To determine whether DcNPs enhance GT distribution into target tissues, namely cancer nodules, the differential localization of GT in DcNP or CrEL form in healthy versus cancer nodule bearing mice was investigated. Since lungs are a common metastatic site for breast cancer disease progression, a model for metastasis that forms cancer nodules in the lungs was used. Cancer nodules were established in female BALB/c mice via intravenous inoculation of syngeneic breast cancer cells (4T1). […] Once nodules were established and confirmed with IVIS imaging, mice were administered with GT in either DcNP or conventionally solubilized form at equivalent doses (50/5 mg/kg, GT) and euthanized at pre-determined time intervals. Nodule-free and nodule-bearing lungs were harvested, and lung tissue drug concentrations were compared in these two groups.

[3] = Mechanism-based pharmacokinetic modeling (MBPK) of DcNP associated and dissociated GT; design: species or system mice; details: for V, DcNP Dissociated Parameter: fitted to CrEL data
Description: Briefly, the model adopted here for GT is composed of two sub-models representing DcNP-associated drug and dissociated drug species. Each sub-model has a central compartment and a peripheral compartment. The observed plasma concentration is the sum of DcNP-associated and dissociated species since they cannot be measured separately. […] These parameters were then fixed and the linked sub-models were fitted to the observed total concentrations for G and T obtained after injection of the DcNP-dose. The model reasonably assumed that the pharmacokinetics of drugs released from particles will be the same as that of the free-drug (CrEL) control. It was assumed that G and T are released from the particle at independent rates (k1,3) in the central compartment and only dissociated drugs are subject to clearance from the system (k0,1). […] The peripheral compartment features purely drug exchange between plasma and a group of slowly equilibrating tissues (k4,3, k3,4). In other words, the DcNP-associated drug is cleared only via its release from the particles in the central compartment. […] MBPK modeling and parameter estimations were performed using SAAM II v2.3.
To further understand the effect of DcNP on the pharmacokinetic behavior of GT, a mechanism-based pharmacokinetic model (MBPK) was used to simulate the time course of DcNP-associated and dissociated drugs in plasma. The MBPK model adapted for GT-DcNPs is based on a validated MBPK model developed for long-acting HIV drug combination nanoparticles tested in non-human primates. Experimentally, the total drug concentrations in plasma (i.e., DcNP-associated plus dissociated) can be measured, but DcNP-associated and dissociated drugs could not be distinguished. […] The MBPK model presented in FIG. 4 utilizes data from both DcNP and CrEL control formulation treated animals to estimate plasma concentrations of DcNP-associated and dissociated drug species over time and their respective time-averaged fractions in vivo. After intravenous administration as a DcNP, GT can theoretically exist in at least two species: DcNP-associated drug and dissociated drug. The latter can be reasonably assumed to distribute and be cleared as free G and T after administration of CrEL control formulation.
Individual distribution, metabolism and elimination of G and T are well characterized. […] T is metabolized in the liver primarily by CYP3A4 and CYP2C8 with subsequent excretion of metabolites into the bile. In this model, the k0,1 term represents the aggregate elimination processes of G and T through their independent described pathways. A peripheral compartment for both G and T was added and distribution was parameterized with the k1,2 and k2,1 terms. […] With these assumptions in place, the k1,3 term was set to link the two sub-models and represent the release mechanism of drug from DcNP into the central compartment. The DcNP associated species of G and T was then parameterized with the k4,3 and k3,4 to account for distribution.

[4] = lung, 1 hour after DcNP, 4T1 tumor bearing mice, read-out: Lung
[5] = lung, 1 hour after DcNP, Healthy mice, 50/5 mg/kg GT IV, read-out: Lung
[6] = lung, 1 hour after control (CrEL), 4T1 tumor bearing mice, 50/5 mg/kg GT IV, read-out: Lung
[7] = lung, 1 hour after control (CrEL), Healthy mice, 50/5 mg/kg GT IV, geometric mean ± SD, read-out: Lung
[8] = lung, 4T1 tumor bearing mice, read-out: Lung
[9] = lung, Healthy mice, read-out: Lung
[10] = 1 hour after DcNP, 4T1 tumor bearing mice
[11] = 1 hour after DcNP, Healthy mice
[12] = 1 hour after control (CrEL), 4T1 tumor bearing mice
[13] = 1 hour after control (CrEL), Healthy mice
[14] = plasma, 1 hour after DcNP, 4T1 tumor bearing mice, read-out: Plasma
[15] = plasma, 1 hour after DcNP, Healthy mice, read-out: Plasma
[16] = plasma, 1 hour after control (CrEL), 4T1 tumor bearing mice, read-out: Plasma
[17] = plasma, 1 hour after control (CrEL), Healthy mice, read-out: Plasma
[18] = model derived, single IV dose in GT DcNP dosage form
[19] = model derived, single IV dose in GT DcNP dosage form, listed as G

Structure (SMILES)	log P [1]	concentration at 1 h [2, 4] [ng/g]	concentration at 1 h [2, 5] [ng/g]	concentration at 1 h [2, 6] [ng/g]	concentration at 1 h [2, 7] [ng/g]	concentration at 24 h [2, 8] [ng/g]	concentration at 24 h [2, 9] [ng/g]	Kp at 1 h [2, 10]	Kp at 1 h [2, 11]	Kp at 1 h [2, 12]	Kp at 1 h [2, 13]	concentration at 1 h [2, 14] [ng/mL]	concentration at 1 h [2, 15] [ng/mL]	concentration at 1 h [2, 16] [ng/mL]	concentration at 1 h [2, 17] [ng/mL]	VDcNP, DcNP Associated Parameter [3, 18]	other results
CC1(C)CCC(CN2CCN(c3ccc(C(=O)NS(=O)(=O)c4ccc(NCC5CCOCC5)c([N+](=O)[O-])c4)c(Oc4cnc5[nH]ccc5c4)c3)CC2)=C(c2ccc(Cl)cc2)C1 [Venetoclax, 4-[4-[[2-(4-chlorophenyl)-4,4-dimethylcyclohexen-1-yl]methyl]piperazin-1-yl]-N-[3-nitro-4-(oxan-4-ylmethylamino)phenyl]sulfonyl-2-(1H-pyrrolo[2,3-b]pyridin-5-yloxy)benzamide]	6.92	–	–	–	–	–	–	–	–	–	–	–	–	–	–	–	–
Nc1ccn([C@@H]2O[C@H](CO)[C@@H](O)C2(F)F)c(=O)n1 [Gemcitabine, 4-amino-1-[(2R,4R,5R)-3,3-difluoro-4-hydroxy-5-(hydroxymethyl)oxolan-2-yl]pyrimidin-2-one]	–	12500 ± 4900	7500 ± 1200	6000 ± 800	900 ± 400	3500 ± 1000	300 ± 100	0.2 ± 0.1	0.1 ± 0.2	2.2 ± 1.4	0.9 ± 0.3	72600 ± 60000	52200 ± 64000	2800 ± 1400	900 ± 200	5.2 ± 0.6 mL	lung-to-plasma ratio, cancer nodule bearing mice times greater than healthy ([2]; 24 hours after GT DcNP): 5 times; Kp at 24 h ([2]; 4T1 tumor bearing mice): 0.1 ± 0.03; Kp at 24 h ([2]; Healthy mice): 0.02 ± 0.01; concentration at 24 h ([2]; plasma, 4T1 tumor bearing mice, read-out: Plasma): 34200 ± 600 ng/mL; concentration at 24 h ([2]; plasma, Healthy mice, read-out: Plasma): 12700 ± 1500 ng/mL; decrease of estimated volume of central compartment, DcNP compared to CrEL [3]: 4.6 times; release parameter (k1,3) of G lower than T ([3]; GT DcNP): 9.5 fold; K0,1, DcNP Dissociated Parameter [3, 18]: 3.9 ± 0.9 h⁻¹; K1,2, DcNP Dissociated Parameter [3, 18]: 0.5 ± 0.2 h⁻¹; K1,3 (release parameter), DcNP Associated Parameter [3, 18]: 0.2 ± 0.02 h⁻¹; K2,1, DcNP Dissociated Parameter [3, 18]: 0.2 ± 0.1 h⁻¹; K3,4, DcNP Associated Parameter [3, 18]: 0.6 ± 0.1 h⁻¹; K4,3, DcNP Associated Parameter [3, 18]: 1.8 ± 0.5 h⁻¹; V, DcNP Dissociated Parameter [3, 18]: 24 ± 12 mL; V, DcNP Dissociated Parameter [3, 19]: 24 mL; K1,3 (release parameter), DcNP Associated Parameter [3, 19]: 0.2 h⁻¹; VDcNP, DcNP Associated Parameter [3, 19]: 5.2 mL
C=CC(=O)N1CCC([C@@H]2CCNc3c(C(N)=O)c(-c4ccc(Oc5ccccc5)cc4)nn32)CC1 [Zanubrutinib, (7S)-2-(4-phenoxyphenyl)-7-(1-prop-2-enoylpiperidin-4-yl)-4,5,6,7-tetrahydropyrazolo[1,5-a]pyrimidine-3-carboxamide]	3.5	–	–	–	–	–	–	–	–	–	–	–	–	–	–	–	–
CC(=O)O[C@H]1C(=O)[C@@]2(C)[C@H]([C@H](OC(=O)c3ccccc3)[C@]3(O)C[C@H](OC(=O)[C@H](O)[C@@H](NC(=O)c4ccccc4)c4ccccc4)C(C)=C1C3(C)C)[C@]1(OC(C)=O)CO[C@@H]1C[C@@H]2O [Paclitaxel, [(1S,2S,3R,4S,7R,9S,10S,12R,15S)-4,12-diacetyloxy-15-[(2R,3S)-3-benzamido-2-hydroxy-3-phenylpropanoyl]oxy-1,9-dihydroxy-10,14,17,17-tetramethyl-11-oxo-6-oxatetracyclo[11.3.1.0^3,10.0^4,7]heptadec-13-en-2-yl] benzoate]	–	900 ± 500	600 ± 400	1700 ± 500	1000 ± 300	400 ± 100	60 ± 10	0.4 ± 0.2	0.4 ± 0.01	2.5 ± 0.8	3.3 ± 1.2	2200 ± 1100	1400 ± 900	700 ± 100	300 ± 50	0.8^a mL	lung concentration, cancer nodule bearing mice times greater than healthy mice ([2]; 24 hours after GT DcNP): 7 times
